Results: patent publication US12227488B2, “Small molecule degraders of Helios and methods of use” (DANA-FARBER CANCER INSTITUTE, INC., priority 2018, dated 2025)

Columns and labels:
CRBN and Helios (IKZF2) = biological target: T1, CRBN and Helios (IKZF2) (Homo sapiens, UniProt Q96SW2+Q9UKS7); assay: TR-FRET dimerization assay (CRBN-IKZF2 ternary complex formation); type: binding; conditions: for TR-FRET signal (520/490 ratio), CRBN-Helios dimerization, in words: FIG. 1B, 2A, 5; for TR-FRET-IKZF2 (Normalized to CC-885): n=1
T1 construct: His (N); Strep (N)
Method in brief: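 BODIPY-labeled DDB1ΔB-CRBN and in vitro biotinylated IKZF2 were treated with increasing compound concentrations plus tracer Terbium-Streptavidin and incubated 15 min at rt. Recruitment was quantified as the 520/490 nm TR-FRET ratio; values are single measurements (n=1), each averaged from at least three technical replicates.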

IKZF1 = biological target: T2, IKZF1 (Homo sapiens, UniProt Q13422); assay: Cellular degradation assay, eGFP-IKZF1Δ fusion with mCherry reporter in Flp-In 293 cells; type: cell-based; conditions: for IKZF1 GFP/RFP Relative Abundance: 5 h incubation, n=1
T2 construct: expressed in transfected cells; host or cells: Flp-In 293
Method in brief: (§1)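 Flp-In 293 cells stably expressing eGFP-tagged degron fusions with P2A-mCherry reporter were treated with compound titrations (0.5% DMSO) for 5 hours. Imaging quantified GFP-positive/mCherry-positive cell fraction per well; DC50 at 5 h from nonlinear variable-slope fit.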

Helios [1] = biological target: T3, Helios (Homo sapiens, UniProt Q96SW2+Q9UKS7); assay: Immunoblot for Helios in Jurkat cells; type: cell-based; conditions: for Helios degradation on co-treatment with proteasome or NAE inhibitor: Jurkat cells, 1 μM compound with 1 μM bortezomib, MLN4924 or carfilzomib, 4 h; for Helios degradation (immunoblot): wildtype or Crbn−/− Jurkat cells, 4 h treatment
T3 construct: endogenous in cells; host or cells: Jurkat
Protocol: (§2) A focused library of imide analogs was synthesized and assessed for their ability to induce dimerization between CRBN and Helios in a time-resolved fluorescence energy transfer (TR-FRET) assay (FIG. 1A).
(§3) Cells were lysed in M-PER buffer (Thermo Scientific) containing protease/phosphatase inhibitor cocktail (Roche). Protein concentration was measured using a BCA assay (Pierce™) Equivalent amounts of each sample were loaded on 4-12% Bis-Tris gels (Invitrogen™) transferred to nitrocellulose membranes, and immunoblotted with the indicated antibodies. IRDye®800-labeled goat anti-rabbit IgG and IRDye®680-labeled goat anti-mouse IgG (LI-COR®) secondary antibodies were purchased from LI-COR®, and membranes were detected on an Odyssey® detection system (LI-COR® Biosciences).
as §3, with “Odyssey” for “Odyssey®”

Helios [2] = biological target: T4, Helios (Mus musculus, UniProt P81183); assay: Immunoblot for Helios in Hoxb8-immortalized myeloid progenitor cells (wildtype or Crbn^I391V/I391V); type: cell-based, murine; conditions: Hoxb8 myeloid progenitor cells from wildtype or Crbn^I391V/I391V mice, 18 h
T4 construct: endogenous in cells; host or cells: Hoxb8-immortalized myeloid progenitor cells from mice
Protocol: IKZF1/3 are not susceptible to IMiD-mediated degradation in murine cells, and this can be rescued by mutating a single amino acid on the surface of murine CRBN (Ile 391) to the analogous human residue (Val). To determine whether Helios follows a similar pattern, Hoxb8-immortalized myeloid progenitor cells derived from wildtype or Crbn^I391V/I391V mice were treated with compound 54. […] Thus, Helios is degradable in murine cells only if they express ‘humanized’ CRBN.

Ikzf2 mRNA = assay: qPCR for Ikzf2 mRNA in Jurkat cells; type: cell-based; conditions: 4 h, n=3
Protocol: FIG. 2A is a graph of 520/490 TR-FRET ratios. […] FIG. 2C is immunoblots from wildtype or Crbn−/− Jurkat cells treated with compound 54 for 4 h. FIG. 2D is immunoblots from Jurkat cells co-treated with compound 54 (1 μM) and bortezomib (bort.; 1 μM) or MLN4924 (1 μM) for 4 h. FIG. 2E is a bar graph showing quantitative polymerase chain reaction (qPCR) for Ikzf2 messenger ribonucleic acid (mRNA) from Jurkat cells treated for 4 h (n=3; N.S.=not significant).

GSPT1 [3] = biological target: T5, GSPT1 (Homo sapiens, UniProt P15170+Q96SW2); assay: Cellular degradation assay, eGFP-GSPT1 fusion with mCherry reporter in Flp-In 293 cells; type: cell-based; set-up: expressed in transfected cells; host or cells: Flp-In 293; conditions: for GSPT1 GFP/RFP Relative Abundance: 5 h incubation, n=1
Method in brief: as §1

Ikaros [4] = biological target: T6, Ikaros (Homo sapiens, UniProt Q13422+Q96SW2); assay: Immunoblot for Ikaros in Jurkat cells; type: cell-based; conditions: 4 h treatment
T6 construct: endogenous in cells; host or cells: Jurkat
Protocol: as §2, §3

IKZF2 = assay: Cellular degradation assay, eGFP-IKZF2Δ fusion with mCherry reporter in Flp-In 293 cells; type: cell-based; conditions: for IKZF2 GFP/RFP Relative Abundance: 5 h incubation, n=1
Method in brief: as §1

[5] = system: Foxp3+ regulatory T cells; assay: IFNγ production of isolated Crbn^I391V/I391V Tregs after PMA/ionomycin restimulation; type: cell-based, murine; conditions: 2 μM, 4 days, restimulated with PMA/ionomycin 5 h
Protocol: (§4) FIG. 9A-FIG. 9C are a series of graphs showing that Helios degradation in Tregs permits IFNγ production. Isolated Crbn^I391V/I391V Tregs were treated with 2 μM of compound 69, 5 ng/mL IL-2, and 20 ng/mL IL-4 for 4 days and then restimulated with PMA/ionomycin for 5 h. […] FIG. 9B is a bar graph showing the percent increase of IFNγ with treatment of compound 69.
(§5) Foxp3+ regulatory T cells were isolated by sorting for CD4+ CD25+ T cells from Crbn^I391V/I391V spleens, treated with 2 μM of compound 69, 5 ng/mL IL-2, and 20 ng/mL IL4 for 4 days and then restimulated with PMA/ionomycin for 5 h. Cells were then fixed/permeabilized and stained with fluorochrome-coupled antibodies. […] FIG. 9B is a bar graph showing the percent increase of IFNγ with treatment of compound 69.

Helios [6] = biological target: T7, Helios (Mus musculus, UniProt P81183+Q8C7D2, I391V); assay: Helios levels in isolated Crbn^I391V/I391V Tregs; type: cell-based, murine; conditions: 2 μM, IL-2 and IL-4, 4 days
T7 construct: from tissue; host or cells: spleen (T cell subpopulations / CD4+ CD25+ Tregs) of Crbn I391V/I391V mice
Protocol: as §4, §5

Ikaros [7] = biological target: T8, Ikaros (Mus musculus, UniProt Q03267+Q8C7D2, I391V); assay: Flow cytometry of Ikaros in splenic T cell subpopulations from Crbn^I391V/I391V mice; type: cell-based, murine; conditions: 1 μM, 16 h
T8 construct: from tissue; host or cells: spleen (T cell subpopulations) of Crbn I391V/I391V mice
Protocol: (§6) FIG. 8A-FIG. 8B are a series of graphs depicting levels of Ikaros and Helios that were assessed by flow cytometry. […] FIG. 8B depicts levels of Ikaros and Helios of splenic T cell subpopulations from Crbn^I391V/I391V mice that were treated with 1 μM of indicated compounds for 16 h.
(§7) Splenocytes were fixed/permeabilized and stained with fluorochrome-coupled antibodies. FACS plots of murine splenocytes were stained for TCRβ, CD4, CD8, and FoxP3 (FIG. 8A).

Helios [8] = biological target: T7, Helios; assay: Flow cytometry of Helios in splenic T cell subpopulations from Crbn^I391V/I391V mice; type: cell-based, murine; conditions: 1 μM, 16 h
Protocol: as §6, §7

GSPT1 [9] = biological target: T5, GSPT1; assay: Immunoblot for GSPT1 in Jurkat cells; type: cell-based; set-up: expressed in transfected cells; conditions: wildtype or Crbn−/− Jurkat cells, 4 h treatment
Protocol: as §2, §3

[10] = compound concentration 6.6667E−05
[11] = compound concentration 6.6667E−06
[12] = compound concentration 6.6667E−07 (667 nM)
[13] = compound concentration 2.00E−05
[14] = compound concentration 2.00E−06
[15] = compound concentration 2.00E−07
[16] = half degradation at 5 h (DC50,5 h), triplicate, 11 point dose response

T3 sequence (Q9UKS7 whole entry): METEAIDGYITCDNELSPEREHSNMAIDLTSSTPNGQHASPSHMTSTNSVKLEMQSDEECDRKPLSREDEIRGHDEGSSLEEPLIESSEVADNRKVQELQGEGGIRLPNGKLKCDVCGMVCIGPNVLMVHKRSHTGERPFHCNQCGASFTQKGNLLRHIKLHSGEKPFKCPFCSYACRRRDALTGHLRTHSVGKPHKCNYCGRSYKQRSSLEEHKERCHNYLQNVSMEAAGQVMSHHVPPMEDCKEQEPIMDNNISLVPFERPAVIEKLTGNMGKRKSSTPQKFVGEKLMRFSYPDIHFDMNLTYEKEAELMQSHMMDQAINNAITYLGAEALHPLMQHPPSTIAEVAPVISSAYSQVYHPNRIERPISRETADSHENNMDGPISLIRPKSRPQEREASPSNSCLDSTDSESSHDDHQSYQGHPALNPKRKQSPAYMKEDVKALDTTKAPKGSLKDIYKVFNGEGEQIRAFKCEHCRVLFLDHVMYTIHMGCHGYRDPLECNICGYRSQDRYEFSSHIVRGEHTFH
T3 sequence (Q96SW2 whole entry): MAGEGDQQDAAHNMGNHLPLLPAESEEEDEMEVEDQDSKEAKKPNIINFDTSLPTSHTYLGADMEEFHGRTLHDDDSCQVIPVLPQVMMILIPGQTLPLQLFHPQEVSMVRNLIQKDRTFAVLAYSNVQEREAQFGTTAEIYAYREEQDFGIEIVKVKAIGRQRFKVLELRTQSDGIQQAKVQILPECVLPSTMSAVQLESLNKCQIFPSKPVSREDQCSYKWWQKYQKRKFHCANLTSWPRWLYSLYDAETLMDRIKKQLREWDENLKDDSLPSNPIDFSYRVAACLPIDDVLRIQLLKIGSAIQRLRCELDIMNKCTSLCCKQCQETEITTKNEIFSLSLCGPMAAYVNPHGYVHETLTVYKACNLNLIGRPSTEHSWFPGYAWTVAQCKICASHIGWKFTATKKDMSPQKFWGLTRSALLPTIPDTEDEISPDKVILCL
T3 sequence (Q16531 whole entry partner): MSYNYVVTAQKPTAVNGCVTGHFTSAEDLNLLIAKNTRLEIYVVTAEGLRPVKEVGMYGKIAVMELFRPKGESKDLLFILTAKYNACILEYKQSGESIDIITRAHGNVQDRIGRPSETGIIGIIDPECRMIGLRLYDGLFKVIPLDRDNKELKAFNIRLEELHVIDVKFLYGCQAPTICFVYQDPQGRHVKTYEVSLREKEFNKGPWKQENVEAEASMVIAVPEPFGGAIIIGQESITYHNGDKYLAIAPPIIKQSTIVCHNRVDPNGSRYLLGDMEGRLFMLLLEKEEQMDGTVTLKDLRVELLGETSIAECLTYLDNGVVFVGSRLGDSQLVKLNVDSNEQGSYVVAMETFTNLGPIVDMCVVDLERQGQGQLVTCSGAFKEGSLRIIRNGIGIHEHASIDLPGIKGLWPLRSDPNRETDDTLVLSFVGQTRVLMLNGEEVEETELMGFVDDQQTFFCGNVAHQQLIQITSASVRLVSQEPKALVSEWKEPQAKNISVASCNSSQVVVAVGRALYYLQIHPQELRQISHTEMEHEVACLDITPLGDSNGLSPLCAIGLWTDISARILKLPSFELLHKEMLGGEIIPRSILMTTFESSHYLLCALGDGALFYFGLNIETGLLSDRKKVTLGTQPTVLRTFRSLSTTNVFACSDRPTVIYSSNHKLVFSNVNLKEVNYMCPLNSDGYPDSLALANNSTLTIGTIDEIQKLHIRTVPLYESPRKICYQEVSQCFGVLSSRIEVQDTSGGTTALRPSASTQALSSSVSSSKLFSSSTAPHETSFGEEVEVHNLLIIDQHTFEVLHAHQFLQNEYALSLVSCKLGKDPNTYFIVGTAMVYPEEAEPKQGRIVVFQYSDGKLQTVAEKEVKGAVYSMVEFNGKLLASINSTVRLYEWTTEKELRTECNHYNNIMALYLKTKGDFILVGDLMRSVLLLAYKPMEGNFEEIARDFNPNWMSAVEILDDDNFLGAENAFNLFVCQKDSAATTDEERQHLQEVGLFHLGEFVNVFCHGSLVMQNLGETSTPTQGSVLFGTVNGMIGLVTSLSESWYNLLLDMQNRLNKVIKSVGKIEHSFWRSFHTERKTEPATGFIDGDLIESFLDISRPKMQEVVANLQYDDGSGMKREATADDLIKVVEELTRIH
T1 sequence (Q96SW2 whole entry): as the sequence (Q96SW2 whole entry) above
T1 sequence (Q9UKS7 whole entry): as the sequence (Q9UKS7 whole entry) above
T5 sequence (P15170 whole entry, the tested form may be a part): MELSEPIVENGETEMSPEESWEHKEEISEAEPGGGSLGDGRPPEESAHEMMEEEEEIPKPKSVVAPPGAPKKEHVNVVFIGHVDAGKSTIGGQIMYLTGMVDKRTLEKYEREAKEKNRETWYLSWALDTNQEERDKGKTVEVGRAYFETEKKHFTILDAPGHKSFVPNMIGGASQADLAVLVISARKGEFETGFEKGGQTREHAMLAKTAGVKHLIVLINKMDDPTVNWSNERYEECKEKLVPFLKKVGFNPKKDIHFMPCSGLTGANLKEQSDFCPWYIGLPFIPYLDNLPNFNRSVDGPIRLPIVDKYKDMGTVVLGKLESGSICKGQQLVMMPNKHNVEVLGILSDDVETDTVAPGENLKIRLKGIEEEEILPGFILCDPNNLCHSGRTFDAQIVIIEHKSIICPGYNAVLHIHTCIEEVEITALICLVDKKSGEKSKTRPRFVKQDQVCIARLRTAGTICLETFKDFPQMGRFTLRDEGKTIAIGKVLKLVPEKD
T5 sequence (Q96SW2 whole entry, the tested form may be a part): as the sequence (Q96SW2 whole entry) above
T5 sequence (Q16531 whole entry partner, the tested form may be a part): as the sequence (Q16531 whole entry partner) above
T2 sequence (Q13422 83-213 isoform Q13422-7 limits assumed): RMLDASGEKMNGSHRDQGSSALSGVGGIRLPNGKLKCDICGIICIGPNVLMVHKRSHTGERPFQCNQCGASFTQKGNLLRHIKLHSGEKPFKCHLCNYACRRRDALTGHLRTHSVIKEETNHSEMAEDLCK
T2 sequence (Q96SW2 whole entry partner, the tested form may be a part): as the sequence (Q96SW2 whole entry) above
T2 sequence (Q16531 2-1140 partner limits assumed): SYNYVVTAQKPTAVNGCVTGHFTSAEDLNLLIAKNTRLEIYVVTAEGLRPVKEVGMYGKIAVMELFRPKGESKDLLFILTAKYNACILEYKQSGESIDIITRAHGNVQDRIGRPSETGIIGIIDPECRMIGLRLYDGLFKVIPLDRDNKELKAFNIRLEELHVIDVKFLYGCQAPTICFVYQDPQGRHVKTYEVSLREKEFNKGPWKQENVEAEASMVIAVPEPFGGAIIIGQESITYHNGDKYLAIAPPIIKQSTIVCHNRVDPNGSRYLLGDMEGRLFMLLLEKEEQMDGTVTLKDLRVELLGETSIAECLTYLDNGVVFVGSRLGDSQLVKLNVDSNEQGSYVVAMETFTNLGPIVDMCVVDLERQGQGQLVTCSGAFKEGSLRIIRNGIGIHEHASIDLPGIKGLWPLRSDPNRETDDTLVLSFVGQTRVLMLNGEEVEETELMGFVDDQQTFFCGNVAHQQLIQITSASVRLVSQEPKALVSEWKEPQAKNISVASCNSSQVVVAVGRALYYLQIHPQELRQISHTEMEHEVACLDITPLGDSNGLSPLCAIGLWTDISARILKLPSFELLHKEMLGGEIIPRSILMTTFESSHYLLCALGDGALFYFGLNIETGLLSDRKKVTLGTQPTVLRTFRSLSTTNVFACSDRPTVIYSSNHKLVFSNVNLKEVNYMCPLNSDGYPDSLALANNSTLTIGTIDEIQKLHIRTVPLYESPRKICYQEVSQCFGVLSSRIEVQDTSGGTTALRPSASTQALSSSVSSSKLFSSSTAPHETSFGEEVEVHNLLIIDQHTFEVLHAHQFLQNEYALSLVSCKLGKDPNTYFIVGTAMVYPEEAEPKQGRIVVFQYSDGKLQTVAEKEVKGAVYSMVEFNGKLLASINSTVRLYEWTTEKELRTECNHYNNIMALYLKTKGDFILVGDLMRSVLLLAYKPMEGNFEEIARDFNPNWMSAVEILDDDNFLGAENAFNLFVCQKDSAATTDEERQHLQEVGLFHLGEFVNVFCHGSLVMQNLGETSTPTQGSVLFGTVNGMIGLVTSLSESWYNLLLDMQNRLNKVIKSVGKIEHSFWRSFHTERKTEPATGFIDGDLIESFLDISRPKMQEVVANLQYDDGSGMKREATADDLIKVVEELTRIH
T6 sequence (Q13422 whole entry): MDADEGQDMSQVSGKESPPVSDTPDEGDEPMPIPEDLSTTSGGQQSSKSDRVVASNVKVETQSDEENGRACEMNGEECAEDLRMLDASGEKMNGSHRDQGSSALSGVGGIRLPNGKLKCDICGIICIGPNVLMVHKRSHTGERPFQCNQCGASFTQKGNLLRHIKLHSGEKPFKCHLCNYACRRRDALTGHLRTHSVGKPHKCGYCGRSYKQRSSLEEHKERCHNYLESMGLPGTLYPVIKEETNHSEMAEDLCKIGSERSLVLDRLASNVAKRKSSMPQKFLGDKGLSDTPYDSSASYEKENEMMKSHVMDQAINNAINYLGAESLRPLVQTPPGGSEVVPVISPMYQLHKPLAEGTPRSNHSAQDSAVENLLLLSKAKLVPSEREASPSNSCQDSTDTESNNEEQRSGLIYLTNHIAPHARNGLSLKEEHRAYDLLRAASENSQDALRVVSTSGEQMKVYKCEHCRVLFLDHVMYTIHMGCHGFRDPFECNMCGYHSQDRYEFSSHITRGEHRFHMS
T6 sequence (Q96SW2 whole entry): as the sequence (Q96SW2 whole entry) above
T6 sequence (Q16531 whole entry partner): as the sequence (Q16531 whole entry partner) above

Cc1ccc(NC(=O)NC(C)c2cccc(NC3=CC(=O)N(C4CCC(=O)NC4=O)C3=O)c2)cc1Cl (stereo not drawn) [Compound 54, 1-(3-chloro-4-methylphenyl)-3-(1-(3-((1-(2,6-dioxopiperidin-3-yl)-2,5-dioxo-2,5-dihydro-1H-pyrrol-3-yl)amino)phenyl)ethyl)urea] was tested, and the “TR-FRET signal (520/490 ratio), CRBN-Helios dimerization, in words” value (CRBN and Helios (IKZF2)) was “scored even higher than compound 44”, the “TR-FRET-IKZF2 (Normalized to CC-885)” value (CRBN and Helios (IKZF2); [10]) was 1.729 and the “TR-FRET-IKZF2 (Normalized to CC-885)” value (CRBN and Helios (IKZF2); [11]) was 1.629. The “TR-FRET-IKZF2 (Normalized to CC-885)” value (CRBN and Helios (IKZF2); [12]) was 1.382, the “IKZF1 GFP/RFP Relative Abundance” value (IKZF1; [13]) was 0.119 and the “IKZF1 GFP/RFP Relative Abundance” value (IKZF1; [14]) was 0.106. For the same compound, the “IKZF1 GFP/RFP Relative Abundance” value (IKZF1; [15]) was 0.102, the “Helios degradation on co-treatment with proteasome or NAE inhibitor” value (Helios [1]) was “both prevented Helios degradation” and the “Helios degradation (immunoblot)” value (Helios [1]) was “induced CRBN-dependent Helios degradation”. The “Helios degradation in murine cells” value (Helios [2]) was “Helios was only degraded in Crbn^I391V/I391V cells”, the “IKZF2 mRNA levels (qPCR)” value (Ikzf2 mRNA) was “did not affect mRNA levels of IKZF2” and the “GSPT1 GFP/RFP Relative Abundance” value (GSPT1 [3]; [13]) was 0.420. For the same compound, the “GSPT1 GFP/RFP Relative Abundance” value (GSPT1 [3]; [14]) was 0.638, the “GSPT1 GFP/RFP Relative Abundance” value (GSPT1 [3]; [15]) was 0.567 and the “Ikaros degradation (immunoblot)” value (Ikaros [4]) was “lost some degradation activity against Ikaros in comparison to compound 44”. The “IKZF2 GFP/RFP Relative Abundance” value (IKZF2; [13]) was 0.030, the “IKZF2 GFP/RFP Relative Abundance” value (IKZF2; [14]) was 0.024 and the “IKZF2 GFP/RFP Relative Abundance” value (IKZF2; [15]) was 0.027.
For Cc1ccc(NC(=O)NC(C)(C)c2cccc(NC3=CC(=O)N(C4CCC(=O)NC4=O)C3=O)c2)cc1Cl (stereo not drawn) [Compound 69, 1-(3-chloro-4-methylphenyl)-3-(2-(3-((1-(2,6-dioxopiperidin-3-yl)-2,5-dioxo-2,5-dihydro-1H-pyrrol-3-yl)amino)phenyl)propan-2-yl)urea], the IFNγ production [5] was “increased production of IFNγ upon restimulation”, the “TR-FRET signal (520/490 ratio), CRBN-Helios dimerization, in words” value (CRBN and Helios (IKZF2)) was “induced higher TR-FRET signals than CC-885” and the “TR-FRET-IKZF2 (Normalized to CC-885)” value (CRBN and Helios (IKZF2); [10]) was 2.037. The “TR-FRET-IKZF2 (Normalized to CC-885)” value (CRBN and Helios (IKZF2); [11]) was 1.970, the “TR-FRET-IKZF2 (Normalized to CC-885)” value (CRBN and Helios (IKZF2); [12]) was 1.737 and the “Helios degradation in isolated Tregs” value (Helios [6]) was “able to induce degradation of Helios in Tregs”. The “Ikaros degradation in regulatory T cells (flow cytometry)” value (Ikaros [7]) was “not Ikaros”, the “IKZF1 GFP/RFP Relative Abundance” value (IKZF1; [13]) was 0.086 and the “IKZF1 GFP/RFP Relative Abundance” value (IKZF1; [14]) was 0.140. For the same compound, the “IKZF1 GFP/RFP Relative Abundance” value (IKZF1; [15]) was 0.132, the DC50 (IKZF1; [16]) was 0.014 µM and the “Helios degradation in regulatory T cells (flow cytometry)” value (Helios [8]) was “capable of inducing degradation of Helios”. The “GSPT1 stability (immunoblot)” value (GSPT1 [9]) was “did not affect the stability of GSPT1 or Ikaros”, the “Helios degradation on co-treatment with proteasome or NAE inhibitor” value (Helios [1]) was “Helios degradation is dependent on the proteasome” and the “Helios degradation (immunoblot)” value (Helios [1]) was “induced CRBN-dependent Helios degradation”. For the same compound, the DC50 (GSPT1 [3]; [16]) was > 1 µM, the “Ikaros degradation (immunoblot)” value (Ikaros [4]) was “did not affect the stability of GSPT1 or Ikaros” and the “IKZF2 GFP/RFP Relative Abundance” value (IKZF2; [13]) was 0.032. The “IKZF2 GFP/RFP Relative Abundance” value (IKZF2; [14]) was 0.013, the “IKZF2 GFP/RFP Relative Abundance” value (IKZF2; [15]) was 0.028 and the DC50 (IKZF2; [16]) was 0.0036 µM.
